Assay results published in US10231463B2, “Food mass suitable for microwaving” (Chemische Fabrik Budenheim KG, priority 2013, dated 2019).

Assays:
[1] = Solubility of the additive in water at 20° C.; assay type: physicochemical
[2] = Pore volume by nitrogen gas adsorption (BJH method, BELSORP-mini II); assay type: physicochemical; conditions: total pore volume Vp, nitrogen adsorption at 77.3 K
Source text: Determining the Pore Volume
The pore volume in accordance with the present invention is characterised by means of gas adsorption. The recording of physisorption isotherms (adsorption and desorption isotherms) of inert gas molecules at low temperatures is routinely used for determining solids parameters.
The BJH method provides an algorithm for the calculation of pore width distribution from nitrogen adsorption data on the assumption of a cylindrical pore geometry. In that respect consideration is given to the change in the adsorbed volume in the pores in dependence on the pore radius, wherein the pore radius distribution function is related as a relative value to the total pore volume. […] It is assumed that the entire pore system is filled with a capillary condensate.

[3] = Thawing and baking trials with yeast-raised wheat frozen doughs in a microwave oven; conditions: yeast-raised wheat frozen dough; for ΔT (temperature difference between crust temperature and crumb temperature): 2 parts by weight additive, 600 watts, 120 seconds; for Microwave activity: assessment scale from ΔT
Experimental: Dough Composition (Basic Recipe):
In addition 2 parts by weight of microwave absorber were added to the basic recipe.
• Mixing and kneading time: 3+2 minutes (the latter in a Stephan mixer) • Dough standing time: 20 minutes • Dough piece weight: 200 g • Cooking time of the dough pieces: 20 minutes • Freezing time: about 4 hours • Deep freeze storage time: about 2 days Thawing and Baking Trials:
The deep-frozen dough pieces were exposed to microwave radiation in a microwave oven from Panasonic (model: NN-GD560M—inverter microwave) for a predetermined period of 120 seconds and with a predetermined microwave power of 600 watts (according to the device indication). After 2 minutes of standing time the temperature of the crust and the crumb was measured by means of an infrared temperature sensor at various measurement points on the dough piece.
Measurement value 1 (M1)=average crust temperature outside
Measurement value 2 (M2)=average crumb temperature in the interior of the dough piece.

Compound	Solubility [1] [mg/mL]	Pore Volume [2]	ΔT (temperature difference between crust temperature and crumb temperature) [3] [°C]	Microwave activity [3]
Magnesium metaphosphate [MMP]	<0.1	5.1 10^−3 cm^3/g	38.4	2 (ΔT=25 to 40° C.=good)
Sodium aluminium phosphate 3:2:8 Na3H15Al2*PO4)8 [SALP 2]	15	6.4 10^−3 cm^3/g	20.5	2 (ΔT=25 to 40° C.=good)
O=P([O-])([O-])OP(=O)([O-])OP(=O)([O-])[O-].[K+].[K+].[K+].[K+].[K+] [KTPP(V), Potassium tripolyphosphate, reference compound]	>200	1.1 10^−3 cm^3/g	12.3	3 (ΔT=<25° C.=no additional activity)
